According to patent publication US10537567B2, “Kinase inhibitors for treatment of disease” (BioAxone BioSciences, Inc., priority 2017, dated 2020):
Entries after “also recorded” stand apart in the source; their conditions may differ.

Tests used:
ROCK2 = ROCK2 (Homo sapiens, UniProt O75116); experiment: DiscoverX kinome screen; type: binding; parameters: are incubated with DNA-tagged kinase domains tagged; DNA tag; purchased DiscoverX; settings: 10,000 nM API
Description: (§1) A 468-target kinome screen and a safety screen were carried out to examine the off-target profiles of different kinase inhibitors (DiscoverX, Freemont, Calif.). The kinome screen is a binding assay where API interference of kinase domain/substrate binding is assessed as percent of control. Less than 10% binding (or >90% binding inhibition) is most biologically relevant and considered as a ‘hit’. BA-2017 only had 7 off-target hits compared to BA-1049 and Netarsudil, which both had 11 hits (Table 1) (Studirvant et al. 2016 Bioorg Med Chem Lett. 26(10):2475-2480). […] Published data for Netarsudil were with 200 times less API. […] The NET activity likely helps to decrease IOP but might increase hyperemia, while the SERT activity might have long-term safety consequences (Costagliola et al. 2004 CNS drugs 18(8): p. 475-484).
(§2) In the kinome screen BA-2017 had fewer off-target hits (Table 1) than BA-1049. […] An interesting hit from the kinome screen was on Abl (Table 1), an oncogene that also regulates many cellular activities, including vascular leakage.

ROCK1 = ROCK1 (Homo sapiens, UniProt Q13464); experiment: DiscoverX kinome screen; type: binding; parameters: are incubated with DNA-tagged kinase domains tagged; DNA tag; purchased DiscoverX; settings: 10,000 nM API
Description: as §1, §2

468-target kinome screen = experiment: DiscoverX kinome screen, off-target hits; type: binding, human; settings: 10,000 nM API
Description: as §1, §2

GRK1 = molecular target: T1, GRK1 (Homo sapiens, UniProt Q15835); experiment: DiscoverX kinome screen; type: binding
T1 construct: are incubated with DNA-tagged kinase domains tagged; DNA tag; purchased DiscoverX
T1 sequence (Q15835 190-455 limits assumed): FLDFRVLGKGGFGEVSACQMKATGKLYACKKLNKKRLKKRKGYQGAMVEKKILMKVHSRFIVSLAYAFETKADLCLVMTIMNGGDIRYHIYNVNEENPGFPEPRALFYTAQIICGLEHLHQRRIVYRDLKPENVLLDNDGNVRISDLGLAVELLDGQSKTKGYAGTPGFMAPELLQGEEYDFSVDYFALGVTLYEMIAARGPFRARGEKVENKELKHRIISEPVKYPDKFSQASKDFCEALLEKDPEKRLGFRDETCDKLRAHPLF
Description: as §1, §2

PKC ε = molecular target: T2, PKC ε (Homo sapiens, UniProt Q02156); experiment: DiscoverX kinome screen; type: binding; settings: 10,000 nM API
T2 construct: are incubated with DNA-tagged kinase domains tagged; DNA tag; purchased DiscoverX
Description: as §1, §2

PKC Δ = molecular target: T3, PKC Δ (Homo sapiens, UniProt Q05655); experiment: DiscoverX kinome screen; type: binding; settings: 10,000 nM API
T3 construct: are incubated with DNA-tagged kinase domains tagged; DNA tag; purchased DiscoverX
Description: as §1, §2

[1] = system: rat midbrain dopaminergic neurons; experiment: MPP+ toxicity in cultured midbrain dopaminergic neurons; type: cell-based; settings: 0.25-50 μM, 20 μM MPP+, 48 hours
Description: These in vitro experiments are conducted using primary cultures of embryonic rat midbrain dopaminergic neurons. MPP+ is known to cause the death of cultured midbrain dopaminergic neurons. Rho kinase and Abl kinase inhibitors are tested individually at varying concentrations for their ability to prevent MPP+-induced cell death.
Primary cultures of rat midbrain dopaminergic neurons are established from cells acutely isolated from the ventral midbrain of embryonic day 14 rats (Charles River; Wilmington, Mass.). The cells are plated in serum-free conditions (Neurobasal plus B-27 Supplements; Thermo-Fisher; Waltham, Mass.) onto glass coverslips coated with poly-ornithine and laminin as attachment factors. Cells are cultured overnight on the coated coverslips in a 37° C./5% CO2 tissue culture incubator prior to the initiation of the varying treatments.
On day 3 after plating, MPP+(Sigma Chemical; St. Louis, Mo.) is added to the medium at 20 μM final concentration. The cultures are allowed to continue for an additional 48 hours. At the end of the culture period, the cells are washed, and then fixed with 4% paraformaldehyde solution prior to permeabilization and blocking with 10% normal goat serum in PBS. […] Specimens are examined using fluorescence microscopy and the numbers of TH-positive neurons with non-pyknotic nuclei are counted in 6 to 8 high power fields per specimen.

[2] = Microbead model of glaucoma in rats; type: in vivo, Sprague Dawley rat; settings: ocular treatment vs vehicle-treated eyes
Description: The different markers of RGC dysfunction are examined in a rat model of glaucoma where latex microspheres are injected into the anterior chamber of the eye to block outflow through the TM. In Sprague Dawley rat RGC loss is 20%-30% over a 4-6 weeks period when 20 μL of beads are injected weekly. This severe model is used to start to determine the amount of API in the retina 1 hour after topical installation of the API/latanoprost combination. Rats are topically dosed with API/Latanoprost for a week after microbead injection, a time when IOP is elevated. The right eyes serve as non-glaucomatous controls.
BIII tubulin expression is decreased in RGCs in glaucoma (Soto et al. 2008 J Neurosci. 28(2): p. 548-561). Loss of BIII tubulin is a biomarker of early RGC degeneration. […] BIII tubulin is observed in radial sections, and RGCs identified by labeling with Brin3. For quantitative comparisons, control and treated radial cryostat sections are cut in the same block and mounted on the same slide, and labeled together with BIII isotype-specific antibodies.
ROCK activation is examined in the same microbead model of glaucoma in rats 4 weeks after daily topical dosing in rats with left and right eyes injected with beads. API alone or API+Latanoprost are delivered once daily by 15 μL eye drop instilled into the left eyes (glaucoma/treated) and right eyes left untreated (glaucoma/untreated). […]

[3] = Total body irradiation (TBI) mouse model, GI histopathology; type: in vivo, mice; settings: dosing for three days, 3 days after irradiation
Description: At day 0, TBI is carried out at a lethal dose of 8.0 Gy (Harlan mice) or 9.0 Gy (Coats mice)-doses that are expected to cause death in about 90% of animals within 30 days. […] Mice are monitored for survival up to day 30. During this period, mice were deprived of all supportive care, including antibiotics, to increase the stringency of the survival protocol. Survival is assessed with Kaplan-Meir curves. […] Mice are euthanized at 3 days and GI tissue is paraffin-embedded, sectioned and immunolabeled with rabbit anti-mouse leucine-rich-repeat-containing G-protein-coupled receptor 5 (LGR5), a GI stem cell marker that is expressed upon GI injury.

T2 sequence (Q02156 408-668 limits assumed): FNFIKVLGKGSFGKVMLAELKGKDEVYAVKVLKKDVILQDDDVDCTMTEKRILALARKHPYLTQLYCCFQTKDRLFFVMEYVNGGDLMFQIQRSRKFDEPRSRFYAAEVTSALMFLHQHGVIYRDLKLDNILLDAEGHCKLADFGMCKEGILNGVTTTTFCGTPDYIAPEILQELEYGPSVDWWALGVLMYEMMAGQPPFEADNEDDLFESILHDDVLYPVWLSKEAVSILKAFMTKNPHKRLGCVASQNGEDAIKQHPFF
T3 sequence (Q05655 349-603 limits assumed, stated change not applied): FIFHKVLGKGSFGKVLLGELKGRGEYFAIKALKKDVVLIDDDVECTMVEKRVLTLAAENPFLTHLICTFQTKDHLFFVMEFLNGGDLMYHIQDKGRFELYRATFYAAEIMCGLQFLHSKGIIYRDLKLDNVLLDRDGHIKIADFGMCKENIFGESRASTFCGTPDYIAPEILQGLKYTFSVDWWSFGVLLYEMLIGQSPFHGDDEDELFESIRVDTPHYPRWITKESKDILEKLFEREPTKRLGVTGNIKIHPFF
ROCK1, sequence (Q13464 76-338 limits assumed): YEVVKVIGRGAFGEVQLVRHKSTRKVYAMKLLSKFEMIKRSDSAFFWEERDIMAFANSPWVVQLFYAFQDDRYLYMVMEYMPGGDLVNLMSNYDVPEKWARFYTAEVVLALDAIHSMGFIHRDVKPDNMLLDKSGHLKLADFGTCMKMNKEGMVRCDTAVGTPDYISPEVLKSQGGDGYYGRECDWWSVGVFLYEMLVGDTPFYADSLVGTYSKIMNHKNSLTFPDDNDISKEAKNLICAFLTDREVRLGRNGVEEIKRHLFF
ROCK2, sequence (O75116 92-354 limits assumed): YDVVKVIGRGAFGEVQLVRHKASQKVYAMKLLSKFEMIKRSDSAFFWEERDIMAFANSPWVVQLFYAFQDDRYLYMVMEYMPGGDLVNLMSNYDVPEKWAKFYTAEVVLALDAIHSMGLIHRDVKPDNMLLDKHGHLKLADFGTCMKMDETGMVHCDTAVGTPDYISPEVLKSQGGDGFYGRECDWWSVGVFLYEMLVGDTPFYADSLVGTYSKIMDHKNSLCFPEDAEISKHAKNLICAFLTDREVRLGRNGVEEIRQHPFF

Compound | Kinome Screen % inhibition ROCK2 (ROCK2) [%] | Kinome Screen % inhibition ROCK1 (ROCK1) [%] | Kinome Screen Other (other off-target kinase) (468-target kinome screen) | Off-target activity on GRK1 (GRK1) | Kinome Screen % inhibition PKC ε (PKC ε) [%] | Kinome Screen % inhibition PKC Δ (PKC Δ) [%] | Number of surviving TH-positive neurons [1] | BIII tubulin immunostaining in glaucoma eyes [2] | Radiation-induced jejunal damage (LGR5 expression) [3] | # Hits <10% binding (468-target kinome screen; hit = less than 10% binding (>90% binding inhibition))
C[C@H](N)C1CCN(S(=O)(=O)c2cccc3c(=O)[nH]ccc23)CC1 [BA-2057] | >96 | >98 | none | neither BA-1076 nor its metabolite, BA-2057, exhibits off-target inhibition of GRK1 | <70 | <70 | dose-dependent increase in the number of surviving neurons | prevents the loss of BIII tubulin immunostaining | mitigated radiation-induced jejunal damage | 
C[C@H](N)C1CCN(S(=O)(=O)c2cccc3cnccc23)CC1 [BA-1076] | >99 | >99 | (ABL) | does not have this off-target effect; also recorded: neither BA-1076 nor its metabolite, BA-2057, exhibits off-target inhibition of GRK1 | 86 | <70 | dose-dependent increase in the number of surviving neurons | prevents the loss of BIII tubulin immunostaining | mitigated radiation-induced jejunal damage | 7
